The target of series [1] is T1, Alpha-1D adrenergic receptor (Homo sapiens, UniProt P25100). Further: in other assays of this panel Not Active means under 50% inhibition at 10 µM.
T1 sequence (P25100 whole entry): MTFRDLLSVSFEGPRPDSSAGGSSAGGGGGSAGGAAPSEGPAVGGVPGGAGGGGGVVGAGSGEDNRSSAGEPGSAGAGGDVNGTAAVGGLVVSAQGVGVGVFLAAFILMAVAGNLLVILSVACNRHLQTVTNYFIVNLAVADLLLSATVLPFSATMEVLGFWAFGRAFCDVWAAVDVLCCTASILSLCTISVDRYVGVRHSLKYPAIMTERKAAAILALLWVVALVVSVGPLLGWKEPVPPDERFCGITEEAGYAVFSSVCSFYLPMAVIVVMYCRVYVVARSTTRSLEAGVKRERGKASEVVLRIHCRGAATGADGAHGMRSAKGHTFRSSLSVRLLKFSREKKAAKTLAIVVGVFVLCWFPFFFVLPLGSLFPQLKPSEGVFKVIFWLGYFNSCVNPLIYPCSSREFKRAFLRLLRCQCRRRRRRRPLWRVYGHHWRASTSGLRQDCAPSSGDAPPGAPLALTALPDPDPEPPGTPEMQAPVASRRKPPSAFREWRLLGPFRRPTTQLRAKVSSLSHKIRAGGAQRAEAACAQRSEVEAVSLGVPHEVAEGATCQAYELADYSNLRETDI
The format is cell membranes, HEK293, Membrane.

The next series has as its target Cannabinoid receptor 1 (Homo sapiens, UniProt P21554). The format is cell membranes, Chem-1, Membrane. Conditions: chem-1. Further: in other assays of this panel Not Active means under 50% inhibition at 10 µM.
For another series, the target named is T2, Cathepsin G (Homo sapiens, UniProt P08311).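 Further: inhibition of Cathepsin G enzyme activity, tested on an AMC-conjugated peptide substrate; in other assays of this panel Not Active means under 50% inhibition at 10 µM.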
T2 sequence (P08311 whole entry): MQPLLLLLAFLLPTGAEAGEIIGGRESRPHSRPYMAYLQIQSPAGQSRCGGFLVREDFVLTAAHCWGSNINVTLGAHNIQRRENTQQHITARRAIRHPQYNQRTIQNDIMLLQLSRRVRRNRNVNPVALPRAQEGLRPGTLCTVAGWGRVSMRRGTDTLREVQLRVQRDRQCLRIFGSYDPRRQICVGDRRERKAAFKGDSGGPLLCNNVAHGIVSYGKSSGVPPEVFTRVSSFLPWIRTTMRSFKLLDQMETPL
Nature of the series: biochemical. The format is tissue-based, Neutrophil. To be noted: neutrophil.

The target of series [2] is Mitogen-activated protein kinase 3 (Homo sapiens, UniProt P27361). The series is described as follows: DRUGMATRIX: Protein Serine/Threonine Kinase, ERK1 enzyme inhibition (substrate: Myelin Basic Protein). Also noted: species or system Escherichia coli. Conditions: Not Active = under 50% inhibition at 10 µM.
Series [3] concerns the target Tyrosine-protein kinase Fyn (Homo sapiens, UniProt P06241). The series is described as follows: biochemical. The format is cell-based, Insect cells. To be noted: insect cells.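 Further: enzymatic inhibition of Fyn kinase activity measured with Poly(Glu:Tyr) as the phosphorylation substrate; in other assays of this panel Not Active means under 50% inhibition at 10 µM.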
The target in a further series is T3, Cytochrome P450 1A2 (Homo sapiens, UniProt P05177). Further: in other assays of this panel Not Active means under 50% inhibition at 10 µM.
T3 sequence (P05177 whole entry): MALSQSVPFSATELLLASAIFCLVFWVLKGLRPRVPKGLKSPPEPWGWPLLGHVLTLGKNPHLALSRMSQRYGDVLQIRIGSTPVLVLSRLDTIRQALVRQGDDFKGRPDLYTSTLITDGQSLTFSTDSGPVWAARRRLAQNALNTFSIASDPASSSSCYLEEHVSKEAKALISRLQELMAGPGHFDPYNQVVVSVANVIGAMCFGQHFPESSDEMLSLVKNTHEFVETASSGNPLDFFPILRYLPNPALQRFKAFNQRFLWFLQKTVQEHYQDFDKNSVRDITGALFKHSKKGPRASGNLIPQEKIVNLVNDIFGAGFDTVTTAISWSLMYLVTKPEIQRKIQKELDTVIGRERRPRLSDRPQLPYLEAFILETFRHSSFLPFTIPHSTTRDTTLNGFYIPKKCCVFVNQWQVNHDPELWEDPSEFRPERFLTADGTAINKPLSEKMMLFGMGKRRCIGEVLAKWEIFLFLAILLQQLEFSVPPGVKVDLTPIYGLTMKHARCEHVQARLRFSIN
Conditions: bti-tn-5b1-4.

For series [4], the target named is Voltage-gated inwardly rectifying potassium channel KCNH2 (Homo sapiens, UniProt Q12809). To be noted: hek293. Further: in other assays of this panel Not Active means under 50% inhibition at 10 µM.
Voltage-gated inwardly rectifying potassium channel KCNH2, sequence (Q12809 whole entry): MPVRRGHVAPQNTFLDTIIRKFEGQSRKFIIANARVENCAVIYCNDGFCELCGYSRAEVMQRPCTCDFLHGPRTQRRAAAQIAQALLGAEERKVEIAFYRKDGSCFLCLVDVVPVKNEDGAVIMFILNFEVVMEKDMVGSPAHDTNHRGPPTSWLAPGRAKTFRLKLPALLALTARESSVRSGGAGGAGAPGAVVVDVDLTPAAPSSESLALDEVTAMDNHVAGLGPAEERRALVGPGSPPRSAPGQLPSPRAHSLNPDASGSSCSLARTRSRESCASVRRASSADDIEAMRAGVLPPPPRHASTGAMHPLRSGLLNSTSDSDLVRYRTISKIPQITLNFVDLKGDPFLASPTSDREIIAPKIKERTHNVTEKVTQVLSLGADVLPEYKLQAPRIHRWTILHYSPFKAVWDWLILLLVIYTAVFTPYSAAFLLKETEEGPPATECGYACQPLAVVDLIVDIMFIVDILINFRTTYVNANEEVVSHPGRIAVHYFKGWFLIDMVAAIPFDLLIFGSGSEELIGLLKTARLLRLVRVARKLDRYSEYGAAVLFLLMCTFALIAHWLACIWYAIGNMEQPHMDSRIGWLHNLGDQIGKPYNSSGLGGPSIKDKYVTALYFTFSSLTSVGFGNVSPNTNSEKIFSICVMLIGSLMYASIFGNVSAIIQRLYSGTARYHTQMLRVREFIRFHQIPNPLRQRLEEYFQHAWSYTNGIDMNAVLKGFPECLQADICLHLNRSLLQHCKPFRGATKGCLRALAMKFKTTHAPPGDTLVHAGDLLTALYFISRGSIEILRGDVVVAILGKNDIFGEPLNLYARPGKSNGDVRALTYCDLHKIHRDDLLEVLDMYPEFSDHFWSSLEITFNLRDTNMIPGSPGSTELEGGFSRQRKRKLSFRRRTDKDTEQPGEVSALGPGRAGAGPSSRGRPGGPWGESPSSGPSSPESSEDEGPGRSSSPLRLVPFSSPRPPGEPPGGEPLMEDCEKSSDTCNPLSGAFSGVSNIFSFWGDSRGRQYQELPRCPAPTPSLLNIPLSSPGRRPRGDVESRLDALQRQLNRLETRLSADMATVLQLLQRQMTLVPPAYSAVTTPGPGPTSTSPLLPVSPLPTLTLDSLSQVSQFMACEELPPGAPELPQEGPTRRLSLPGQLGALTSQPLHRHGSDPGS

Tyrosine-protein kinase Fyn, sequence (P06241 whole entry): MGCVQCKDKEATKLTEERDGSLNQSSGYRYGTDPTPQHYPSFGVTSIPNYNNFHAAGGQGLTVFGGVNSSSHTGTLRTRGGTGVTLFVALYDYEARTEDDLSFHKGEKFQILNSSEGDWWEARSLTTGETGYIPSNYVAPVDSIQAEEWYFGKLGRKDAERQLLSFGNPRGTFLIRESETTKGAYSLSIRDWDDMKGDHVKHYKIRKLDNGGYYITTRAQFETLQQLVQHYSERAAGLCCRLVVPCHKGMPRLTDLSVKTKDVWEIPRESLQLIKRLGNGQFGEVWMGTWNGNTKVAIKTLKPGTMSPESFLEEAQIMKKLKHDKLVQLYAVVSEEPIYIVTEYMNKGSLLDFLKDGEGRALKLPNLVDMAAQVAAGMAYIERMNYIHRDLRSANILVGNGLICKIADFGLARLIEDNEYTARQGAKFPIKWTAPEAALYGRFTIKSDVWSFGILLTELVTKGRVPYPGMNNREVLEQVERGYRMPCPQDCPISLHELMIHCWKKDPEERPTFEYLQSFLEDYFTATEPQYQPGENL
Cannabinoid receptor 1, sequence (P21554 whole entry): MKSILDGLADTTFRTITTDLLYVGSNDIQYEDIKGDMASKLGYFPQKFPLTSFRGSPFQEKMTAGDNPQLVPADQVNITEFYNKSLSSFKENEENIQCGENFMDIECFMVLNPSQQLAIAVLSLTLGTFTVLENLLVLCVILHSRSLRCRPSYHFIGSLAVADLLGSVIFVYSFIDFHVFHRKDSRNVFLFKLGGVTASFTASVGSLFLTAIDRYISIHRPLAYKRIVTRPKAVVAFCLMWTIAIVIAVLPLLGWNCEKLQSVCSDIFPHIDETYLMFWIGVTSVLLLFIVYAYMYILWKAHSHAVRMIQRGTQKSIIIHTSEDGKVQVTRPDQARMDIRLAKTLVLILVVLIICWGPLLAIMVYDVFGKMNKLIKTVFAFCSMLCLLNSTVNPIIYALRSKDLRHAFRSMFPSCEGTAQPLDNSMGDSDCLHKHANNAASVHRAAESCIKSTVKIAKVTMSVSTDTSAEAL
Mitogen-activated protein kinase 3, sequence (P27361 whole entry): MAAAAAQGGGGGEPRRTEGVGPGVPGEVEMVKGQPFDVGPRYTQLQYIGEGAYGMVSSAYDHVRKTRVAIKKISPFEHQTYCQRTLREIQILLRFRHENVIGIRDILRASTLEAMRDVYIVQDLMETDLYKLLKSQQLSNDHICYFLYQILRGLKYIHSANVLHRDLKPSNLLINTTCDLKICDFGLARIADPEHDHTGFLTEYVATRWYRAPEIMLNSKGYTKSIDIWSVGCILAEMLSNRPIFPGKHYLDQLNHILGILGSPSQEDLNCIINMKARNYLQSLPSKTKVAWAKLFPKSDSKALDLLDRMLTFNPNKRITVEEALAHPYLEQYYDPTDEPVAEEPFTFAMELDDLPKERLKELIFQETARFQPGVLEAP

Consider `NC(=O)NC(=O)Cc1ccccc1` [PHENACEMIDE], for which the IC50 result (in series [1] (hek293); on Cannabinoid receptor 1; on Cathepsin G; in series [2]; in series [3]; on Cytochrome P450 1A2) was “Not Active” in each case. Further, the 50% inhibitory concentration (IC50) result in series [4] is reported as “Not Active”. Further, the Ki result (at Cytochrome P450 1A2; in series [4]) was “Not Active” throughout.
As for `O=C1c2ccccc2C(=O)C1c1ccccc1` [PHENINDIONE], the IC50 result (in series [1] (hek293); on Cannabinoid receptor 1; against Cathepsin G; in series [2]; in series [3]; on Cytochrome P450 1A2) was “Not Active” in each case. In series [4], the half-maximal inhibitory concentration (IC50) result is “Not Active”. The Ki entry (at Cytochrome P450 1A2; in series [4]) was “Not Active” in each case.
As to `CCC1(c2ccccc2)C(=O)NC(=O)NC1=O` [PHENOBARBITAL], the IC50 result (in series [1] (hek293); against Cannabinoid receptor 1; at Cathepsin G; in series [2]; in series [3]; at Cytochrome P450 1A2) was “Not Active” throughout. Also, the IC50 result in series [4] is on record as “Not Active”. For the same compound, the Ki result (at Cytochrome P450 1A2; in series [4]) was “Not Active” in each case.
Take `Oc1ccccc1` [PHENOL]: the IC50 result (in series [1] (hek293); against Cannabinoid receptor 1; at Cathepsin G; in series [2]; in series [3]; against Cytochrome P450 1A2) was “Not Active” throughout. Moreover, in series [4], the IC50 result was “Not Active”. Further, the Ki result (on Cytochrome P450 1A2; in series [4]) was “Not Active” each time.
On to `COc1cc([C@@H]2c3cc4c(cc3[C@H](O)[C@H]3COC(=O)[C@H]23)OCO4)cc(OC)c1OC` [PODOFILOX], for which the IC50 result (in series [1] (hek293); against Cannabinoid receptor 1; against Cathepsin G; in series [2]; in series [3]; on Cytochrome P450 1A2) was “Not Active” each time. Moreover, the IC50 entry in series [4] is recorded as “Not Active”. Also, the Ki entry (on Cytochrome P450 1A2; in series [4]) was “Not Active” throughout.
Regarding `CC(CN1c2ccccc2Sc2ccccc21)N(C)C` (stereo unspecified) [PROMETHAZINE], the IC50 was 183 nM in series [1] (read-out: IC50); “Not Active” against Cannabinoid receptor 1; “Not Active” against Cathepsin G; “Not Active” in series [2]; “Not Active” in series [3]; “Not Active” on Cytochrome P450 1A2. The IC50 result in series [4] is given as “Not Active”. For the same compound, the Ki in series [1] (read-out: Ki) is 90 nM; at Cytochrome P450 1A2, “Not Active”; in series [4], “Not Active”.
As for `COc1ccc(C[C@H](N)C(=O)N[C@H]2[C@@H](O)[C@H](n3cnc4c(N(C)C)ncnc43)O[C@@H]2CO)cc1` [PUROMYCIN], the half-maximal inhibitory concentration (IC50) result (in series [1] (hek293); at Cannabinoid receptor 1; against Cathepsin G; in series [2]; in series [3]; at Cytochrome P450 1A2) was “Not Active” in each case. The IC50 entry in series [4] is on record as “Not Active”. For the same compound, the Ki result (at Cytochrome P450 1A2; in series [4]) was “Not Active” in each case.
For the compound CARBOXYMETHYLCELLULOSE, the IC50 result (in series [1] (hek293); at Cannabinoid receptor 1; at Cathepsin G; in series [2]; in series [3]; against Cytochrome P450 1A2) was “Not Active” in each case. Also, in series [4], the IC50 entry is recorded as “Not Active”. For the same compound, the Ki result (in series [1] (hek293); on Cannabinoid receptor 1; on Cathepsin G; in series [2]; in series [3]; on Cytochrome P450 1A2) was “Not Active” each time. The Ki entry in series [4] was “Not Active”.
Take COPPER(II) OXIDE: the IC50 entry (in series [1] (hek293); against Cannabinoid receptor 1; on Cathepsin G; in series [2]; in series [3]; against Cytochrome P450 1A2) was “Not Active” throughout. Besides, in series [4], the 50% inhibitory concentration (IC50) entry was “Not Active”. Also, the inhibitory constant (Ki) entry (in series [1] (hek293); on Cannabinoid receptor 1; on Cathepsin G; in series [2]; in series [3]; on Cytochrome P450 1A2) was “Not Active” each time. The Ki result in series [4] was “Not Active”.
For POVIDONE, the IC50 entry (in series [1] (hek293); on Cannabinoid receptor 1; at Cathepsin G; in series [2]; in series [3]; against Cytochrome P450 1A2) was “Not Active” each time. Also, the IC50 entry in series [4] is reported as “Not Active”. The Ki entry (in series [1] (hek293); on Cannabinoid receptor 1; on Cathepsin G; in series [2]; in series [3]; at Cytochrome P450 1A2) was “Not Active” in each case. Moreover, the Ki entry in series [4] is on record as “Not Active”.

For orientation: IC50 means the concentration at which inhibition is half-maximal. In general, Ki refers to the equilibrium dissociation constant of an inhibitor or competing ligand from its target.

The record behind these values is ChEMBL document CHEMBL1909046, “DrugMatrix in vitro pharmacology data”.
